Measured values as given in PMC6289163 (Tuberculosis (Edinburgh, Scotland), 2018).

Assays:
[1] = test system: intracellular M. tuberculosis H37Rv in primary human macrophages; type: cell-based, Mycobacterium tuberculosis; settings: positive control, 0.1 μg/ml, 0.7 μM; 6 days; not shown
[2] = test system: BCG expressing luxAB; type: cell-based, Mycobacterium bovis bacillus Calmette-Guerin (BCG) Montreal; settings: 6.3-100 μM

`NNC(=O)c1ccncc1` [Isoniazid] was tested, and the “intracellular killing” value [1] was “same intracellular killing as 50 μM of NZX”.
For WKWLKKWIK-OHxTFA [WKWLKKWIKG-OHxTFA], the “mycobacterial inhibitory capacity” value [2] was “bacterial killing capacity was overall lower than that of WKWLKKWIKG-NH2xHOAc”.
